From patent publication US7034018B2, “Substituted pyrrole mannich bases to combat pain and allergic reactions” (Gruenenthal GmbH, priority 1999, dated 2006)

Target: T1, 5-HT transporter (Rattus norvegicus, UniProt P31652)
T1 construct: these vesicular particles were isolated from the pons and medulla oblongata region of the male rat brain; from tissue; host or cells: rat brain synaptosomes (P2 fraction) from the pons and medulla oblongata of male rats
Experiment: Inhibition of serotonin re-uptake (5-HT uptake inhibition) in rat brain synaptosomes
Format: biochemical
Parameters: concentration or dose not given beside the values
Details: synaptosomes (P2 fraction) from pons and medulla oblongata region of male rat brain; means from 2 parallel experiments
Experimental: The investigations of the inhibition of serotonin re-uptake (5-HT uptake inhibition) were carried out by the methods such as are described in M. Ch. Frink, H.-H.-Hennies, W. Englberger, M. Haurand and B. Wilffert, Arzneim.-Forsch./Drug. Res. 46 (III), 11, 1996, pages 1029-1036. They are introduced herewith as reference and thus form part of the disclosure.
To carry out these investigations, synaptosomes were freshly isolated from rat brain areas. In each case the so-called “P2” fraction was used, which was prepared according to the instructions in E. G. Gray and V. P. Whittaker, J. Anat. 76, pages 79-88, 1962. This literature is introduced herewith as reference and thus forms part of the disclosure. For determination of the 5-HT uptake, these vesicular particles were isolated from the pons and medulla oblongata region of the male rat brain.
The following characteristic data were determined for the 5-HT transporter: • 5-HT uptake: Km=0.084±0.011 μM • Vmax: 38.13±4.52 pmol/min/mg protein. The results of the investigations are in each case stated as means from 2 parallel experiments.

T1 sequence (P31652 whole entry): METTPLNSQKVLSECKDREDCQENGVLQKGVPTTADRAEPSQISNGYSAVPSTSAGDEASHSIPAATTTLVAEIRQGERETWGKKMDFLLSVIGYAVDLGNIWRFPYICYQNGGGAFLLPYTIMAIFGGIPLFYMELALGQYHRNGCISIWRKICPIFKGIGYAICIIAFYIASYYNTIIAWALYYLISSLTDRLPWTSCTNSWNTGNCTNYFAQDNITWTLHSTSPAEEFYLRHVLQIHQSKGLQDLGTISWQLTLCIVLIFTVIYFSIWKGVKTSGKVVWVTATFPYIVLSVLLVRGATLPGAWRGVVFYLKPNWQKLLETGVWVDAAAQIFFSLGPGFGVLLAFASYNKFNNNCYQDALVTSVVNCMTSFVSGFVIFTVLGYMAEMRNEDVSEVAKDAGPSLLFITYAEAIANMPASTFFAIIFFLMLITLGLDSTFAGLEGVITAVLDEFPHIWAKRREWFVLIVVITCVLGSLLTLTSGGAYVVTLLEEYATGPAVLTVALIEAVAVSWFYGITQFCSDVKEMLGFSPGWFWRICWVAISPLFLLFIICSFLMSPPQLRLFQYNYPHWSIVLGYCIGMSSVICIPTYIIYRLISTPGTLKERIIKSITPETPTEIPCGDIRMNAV

Inhibition of 5HT uptake in % [%] | Structure (SMILES)
83 | N#CCCn1cccc1C(c1ccccc1F)N1CCCCC1 (centres unmarked) [Example 22, 3-{2-[(2-Fluoro-phenyl)-piperidin-1-yl-methyl]-pyrrol-1-yl}-propionitrile]
57 | Brc1ccc(C(c2cccn2-c2ccccc2)N2CCCC2)cc1 (centres unmarked) [Example 23, 2-[(4-Bromo-phenyl)-pyrrolidin-1-yl-methyl]-1-phenyl-1H-pyrrole]
59 | Cc1cccc(C(c2cccn2-c2ccccc2N)N2CCCCC2)c1 (centres unmarked) [Example 24, 2-[2-(Piperidin-1-yl-m-tolyl-methyl)-pyrrol-1-yl]-phenylamine]
52 | Fc1cc(Br)ccc1C(c1cccn1Cc1ccccn1)N1CCCC1 (centres unmarked) [Example 25, 2-{2-[(4-Bromo-2-fluoro-phenyl)-pyrrolidin-1-yl-methyl]-pyrrol-1-ylmethyl}-pyridine]
71 | c1ccc(Oc2cccc(C(c3cccn3Cc3ccccn3)N3CCCCC3)c2)cc1 (centres unmarked) [Example 26, 2-{2-[(3-Phenoxy-phenyl)-piperidin-1-yl-methyl]-pyrrol-1-ylmethyl}-pyridine]
44 | NC(=S)c1ccccc1-n1cccc1C(c1cccc(Oc2ccccc2)c1)N1CCCCC1 (centres unmarked) [Example 27, 2-{2-[(3-Phenoxy-phenyl)-piperidin-1-yl-methyl]-pyrrol-1-yl}-thiobenzamide]
40 | Fc1ccc(C(c2cccn2CCCl)N2CCCCC2)cc1 (centres unmarked) [Example 28, 1-[[1-(2-Chloro-ethyl)-1H-pyrrol-2-yl]-(4-fluoro-phenyl)-methyl]-piperidine]
48 | OCCn1cccc1C(c1cccc(Oc2ccccc2)c1)N1CCCCC1 (centres unmarked) [Example 29, 2-{2-[(3-Phenoxy-phenyl)-piperidin-1-yl-methyl]-pyrrol-1-yl}-ethanol]
43 | Cc1cccc(C(c2cccn2CCCO)N2CCCCC2)c1 (centres unmarked) [Example 30, 3-[2-(Piperidin-1-yl-m-tolyl-methyl)-pyrrol-1-yl]-propan-1-ol]
50 | OCCCn1cccc1C(c1ccc(F)cc1)N1CCCCC1 (centres unmarked) [Example 31, 3-{2-[(4-Fluoro-phenyl)-piperidin-1-yl-methyl]-pyrrol-1-yl}-propan-1-ol]
42 | Cn1cccc1C(c1ccc(F)cc1)N1CCCCC1 (centres unmarked) [Example 32, 1-[(4-Fluoro-phenyl)-(1-methyl-1H-pyrrol-2-yl)-methyl]-piperidine]
55 | Cn1cccc1C(c1ccc(C(F)(F)F)cc1)N1CCCCC1 (centres unmarked) [Example 33, 1-[(1-Methyl-1H-pyrrol-2-yl)-(4-trifluoromethyl-phenyl)-methyl]-piperidine]
39 | Nc1ccccc1-n1cccc1C(c1c(F)cccc1Cl)N1CCCC1 (centres unmarked) [Example 34, 2-{2-[(2-Chloro-6-fluoro-phenyl)-pyrrolidin-1-yl-methyl]-pyrrol-1-yl}-phenylamine]
43 | Brc1cccc(C(c2cccn2Cc2ccccn2)N2CCCC2)c1 (centres unmarked) [Example 35, 2-{2-[(3-Bromo-phenyl)-pyrrolidin-1-yl-methyl]-pyrrol-1-ylmethyl}-pyridine]
63 | Fc1ccc(C(c2cccn2Cc2ccccn2)N2CCCC2)cc1Br (centres unmarked) [Example 36, 2-{2-[(3-Bromo-4-fluoro-phenyl)-pyrrolidin-1-yl-methyl]-pyrrol-1-ylmethyl}-pyridine]
39 | Fc1cccc(Cl)c1C(c1cccn1Cc1ccccn1)N1CCCC1 (centres unmarked) [Example 37, 2-{2-[(2-Chloro-6-fluoro-phenyl)-pyrrolidin-1-yl-methyl]-pyrrol-1-ylmethyl}-pyridine]
45 | N#Cc1ccc(C(c2cccn2Cc2ccccn2)N2CCCC2)cc1 (centres unmarked) [Example 38, 4-[(1-Pyridin-2-ylmethyl-1H-pyrrol-2-yl)-pyrrolidin-1-yl-methyl]-benzonitrile]
37 | Fc1ccc(-n2cccc2C(c2ccc(F)c(Br)c2)N2CCCC2)cc1 (centres unmarked) [Example 39, 2-[(3-Bromo-4-fluoro-phenyl)-pyrrolidin-1-yl-methyl]-1-(4-fluoro-phenyl)-1H-pyrrole]
51 | O=C(O)c1ccccc1-n1cccc1C(c1cc(Br)ccc1F)N1CCCC1 (centres unmarked) [Example 40, 2-{2-[(5-Bromo-2-fluoro-phenyl)-pyrrolidin-1-yl-methyl]-pyrrol-1-yl}-benzoic acid]
41 | NC(=S)c1ccccc1-n1cccc1C(c1cc(Br)ccc1F)N1CCCC1 (centres unmarked) [Example 41, 2-{2-[(5-Bromo-2-fluoro-phenyl)-pyrrolidin-1-yl-methyl]-pyrrol-1-yl}-thiobenzamide]
53 | CC(C)(C)c1ccc(C(c2cccn2C(C)(C)C)N2CCCC2)cc1 (centres unmarked) [Example 42, 1-tert-Butyl-2-[(4-tert-butyl-phenyl)-pyrrolidin-1-yl-methyl]-1H-pyrrole]

Tested on: phenylquinone-induced writhing in mice
Experiment: Analgesia test in the phenylquinone-induced writhing test in mice
Format: in vivo
Details: male NMRI mice; standard dose of 10 mg/kg, intravenous, 10 minutes before phenylquinone i.p.
Experimental: The in-depth investigation for analgesic activity was carried out in the phenylquinone-induced writhing in mice (modified by I. C. Hendershot, J. Forsaith, J. Pharmacol. Exp. Ther. 125, 237-240 (1959)). Male NMRI mice weighing 25-30 g were used for this. Groups of 10 animals per substance dose received 0.3 ml/mouse of a 0.02% aqueous solution of phenylquinone (phenylbenzoquinone, Sigma, Deisenhofen; preparation of the solution with the addition of 5% ethanol and storage in a water bath at 45° C.) administered intraperitoneally 10 minutes after intravenous administration of the test substances. The animals were placed individually in observation cages. The number of pain-induced stretching movements (so-called writhing reactions=straightening of the body with stretching of the hind extremities) were counted by means of a push-button counter for 5-20 minutes after the administration of phenylquinone. Animals which received only physiological saline solution were also run as a control.
The substances were tested in the standard dose of 10 mg/kg. The inhibition of the writhing reactions by a substance was calculated according to the following equation: [formula]

Structure (SMILES) | Inhibition of the Writhing reaction in % [%]
Cn1cccc1C(c1ccccc1)N1CCCC1 (centres unmarked) [Example 15, 1-Methyl-2-(phenylpyrrolidin-1-yl-methyl)-1H-pyrrole] | 87
CN(C)C(c1ccccc1)c1cccn1C (centres unmarked) [Example 16, Dimethyl-[(1-methyl-1H-pyrrol-2-yl)-phenylmethyl]-amine] | 17
